For data set [1], the system named is St. aureus. Description: E-test (Epsilometer-test), in vitro antibacterial effectiveness. The data set is classed as cell-based. The conditions noted are these: 27 ocular isolates of St. aureus. The source says: (§1) In order to assay the effectiveness of gemifloxacin against the most representative pathogenic strains in ophthalmic infections, its activity was verified in vitro, in terms of MIC50 and MIC90 with the E-test method described by V. Lorian in "Antibiotics in laboratory medicine" (IV ed. 1996, 23-28) and compared to moxifloxacin, ciprofloxacin, levofloxacin and ofloxacin against 85 ocular bacterial isolates subdivided as follows: • 27 St. aureus, 29 S. epidermidis, 16 Coagulase Negative Staphylococci (CNS), 8 Ps. aeruginosa and 5 Serratia marcescens. The following ATCC bacterial strains were also included: Staphylococcus aureus 25923, Staphylococcus aureus 29213, Staphylococcus aureus 43300, S. epidermidis 35984, Pseudomonas aeruginosa 27853 and Pseudomonas aeruginosa 9027.
(§2) The staphylococci also included methicillin resistant strains (MRSA and MRSE).

The next data set relates to St. epidermidis. Described as above. The conditions noted are these: Staphylococcus epidermidis; 29 ocular isolates of St. epidermidis. Format: cell-based.
Source text: as §1, §2

The test system of the next data set is Ps. aeruginosa. The description is as above. The data set is classed as cell-based. The following applies: Pseudomonas aeruginosa; 8 ocular isolates of Ps. aeruginosa. The source says: (§3) In order to assay the effectiveness of gemifloxacin against the most representative pathogenic strains in ophthalmic infections, its activity was verified in vitro, in terms of MIC50 and MIC90 with the E-test method described by V. […] The following ATCC bacterial strains were also included: Staphylococcus aureus 25923, Staphylococcus aureus 29213, Staphylococcus aureus 43300, S. epidermidis 35984, Pseudomonas aeruginosa 27853 and Pseudomonas aeruginosa 9027.

The next data set has as its system Serratia marcescens. The description is as above. The data set is classed as cell-based. The following applies: 5 ocular isolates of Serratia marcescens.
Source text: as §3

Another data set deals with St. coagulase negative. Described as above. The following applies: 16 ocular isolates. Format: cell-based, Coagulase Negative Staphylococci (CNS).
Source text: as §1, §2

Data set [2] relates to ocular St. aureus isolate (7786). Description: In vivo effectiveness: bacterial load (CFU/g) in cornea, bacterial keratitis model. On the set-up: species or system New Zealand albino rabbits. The procedure:
(§4) The effectiveness and accumulation of gemifloxacin in the cornea and aqueous humour were determined in vivo after administration of the 0.3% gemifloxacin compositions (emulsion and aqueous solution) and compared to 0.3% norfloxacin and ofloxacin in aqueous solution, in New Zealand albino rabbits having been induced with bacterial keratitis (Survey of Ophthalmology, vol. 50, suppl. Nov. 2005, p.S32-S48) by intrastromal injection of an inoculum of an ocular St. aureus isolate (7786).
(§5) Male New Zealand albino rabbits were used (Harlan Italia) into which the keratitis had been induced - following anaesthesia with ketamine (37.5 mg/kg) and xylazine (10 mg/kg) by intramuscular means and novesine by topical means (2 drops per eye) - by intrasomal injection of a suspension of the ocular St. aureus isolate 7786 in PBS (Phosphate Buffered Solution). The injection was carried out using an insulin syringe with a 30-gauge needle in each cornea of each rabbit.
(§6) In the first experiment the following treatments were compared: 0.15% aqueous gemifloxacin solution, 0.3% aqueous gemifloxacin solution, 0.3% aqueous norfloxacin solution and physiological solution (0.9% NaCl) as control. The treatment was undertaken every 2 hours over 3 consecutive treatment days (5 administrations/day). The tissues were collected an hour after the last treatment, with the end point being after one day and after three days of treatment.
(§7) In the second experiment the following treatment groups were compared: 0.3% aqueous gemifloxacin solution, 0.3% gemifloxacin emulsion, 0.3% aqueous ofloxacin solution and physiological solution (0.9% NaCl) as control. The treatment was carried out every hour for only one day of treatment (7 administrations/day). The tissues were collected from the animals in each group, killed one hour after the last treatment.
All the compositions used in the two experiments described were administered at 50 µl per treatment.
The bacterial load of each sample was determined by counting CFUs (Colony Forming Units) on a filter and plate, to be reported as CFU/g of tissue.

Data set [3] is described as follows: In vivo pharmacokinetic test: ocular tissue distribution after single ophthalmic administration. On the set-up: species or system pigmented rabbits. The following applies: rabbit, topical, 30 µl of 0.3% solution per eye. The procedure: The penetration capacity of gemifloxacin was determined in the cornea, conjunctiva, aqueous humour and iris-ciliary body after single ophthalmic administration (30 µl) of the solution at 0.3% in both eyes of pigmented rabbits. The tissues were collected at the following times: 15 minutes, 30 minutes, 1, 2, 4, 8, 12, 24 and 48 hours. Quantitative analysis of the samples was carried out by a LC/MS/MS method after suitable extraction of the active principle from the tissue and expressed as µg/g or µg/ml of tissue.

Details of data set [4]: species or system New Zealand albino rabbits. The following applies: male, New Zealand albino, rabbit, in vivo. The procedure: as §4, §5, §6, §7
All the compositions used in the two experiments described were administered at 50 µl per treatment. […]
The fluorescence value obtained was interpolated using the relative standard curve and expressed as nanograms/ml or nanograms/g of tissue.

In data set [5] the test system is St. aureus. The following applies: literature, cited from earlier work.
Where [6] appears, read: Staphylococcus aureus, read-out: MIC90.
Where [7] appears, read: first experiment, 0.3% aqueous solution, every 2 hours, 5 administrations/day, after one and three days, compared with control (gemifloxacin also vs norfloxacin).
The mark [8] stands for this setting: conjunctiva, single ophthalmic administration (30 µl) of 0.3% solution.
[9] abbreviates: cornea, single ophthalmic administration (30 µl) of 0.3% solution.

Each structure is given as a SMILES string. Converted amounts (≈) assume the structure as drawn. Like-named read-outs stand apart in the source and are kept apart here. Bounds are passed on as bounds.

For orientation: MIC50 means the lowest concentration that inhibits either 50% of growth or 50% of the strains tested, depending on the study. As usually defined, the MIC90 is an inhibitory concentration at the 90% level, which refers to growth in some studies and to a panel of isolates in others. The Cmax is the highest concentration seen after dosing. Usually Tmax stands for the time at which the peak concentration occurs. With `CO/N=C1\CN(c2nc3c(cc2F)c(=O)c(C(=O)O)cn3C2CC2)CC1CN` (racemic) [Gemifloxacin, (R,S)-7-(3-aminomethyl-4-methoxyiminopyrrolidin-1yl)-1-cyclopropyl-6-fluoro-4-oxo-1,4-dihydro-1,8-naphthyridin-3-carboxylic acid], the MIC50 in the data set with St. aureus [1] (Staphylococcus aureus) was determined as 0.032 µg/mL (≈ 0.0822 µM); against St. epidermidis it was 0.023 µg/mL (≈ 0.0591 µM); against Ps. aeruginosa it was 0.125 µg/mL (≈ 0.321 µM); with Serratia marcescens it was 0.125 µg/mL (≈ 0.321 µM); against St. coagulase negative, 0.016 µg/mL (≈ 0.0411 µM). In addition, the MIC90 in the data set on St. aureus [1] (setting [6]) amounted to 0.064 µg/mL (≈ 0.164 µM); with St. epidermidis it was 0.094 µg/mL (≈ 0.241 µM); against Ps. aeruginosa, 0.25 µg/mL (≈ 0.642 µM); with Serratia marcescens it was 0.19 µg/mL (≈ 0.488 µM); against St. coagulase negative, 0.047 µg/mL (≈ 0.121 µM). In addition, the “reduction in bacterial load in the cornea” value is “statistically significant reduction in bacterial load” in data set [2] (first experiment, 0.15% aqueous solution, every 2 hours, 5 administrations/day, after one and three days, compared to control and 0.3% norfloxacin); “statistically significant reduction in bacterial load” in data set [2] (setting [7]); “statistically significantly reduce” in [2] (second experiment, 0.3% aqueous solution, every hour, 7 administrations, one day, compared to control); “statistically significantly reduce” in data set [2] (second experiment, 0.3% emulsion, every hour, 7 administrations, one day, compared to control). Moreover, the “reduction in bacterial load relative to the reduction effected by ofloxacin” value in data set [2] (second experiment, gemifloxacin-containing compositions (0.3% aqueous solution and 0.3% emulsion) vs 0.3% ofloxacin solution) was “statistically significant”. Further, the Cmax was determined as 26 ng/mL in [3] (aqueous humour, single administration of 0.3% aqueous solution, healthy eyes); 980 ng/mL in data set [3] (conjunctiva, single administration of 0.3% aqueous solution, healthy eyes); 980 ng/g in data set [3] (setting [8]); 2600 ng/mL in data set [3] (cornea, single administration of 0.3% aqueous solution, healthy eyes); 2600 ng/g in data set [3] (setting [9]); 460 ng/g in data set [3] (iris-ciliary body, single administration of 0.3% aqueous solution, healthy eyes). The Tmax in data set [3] (aqueous humour, single ophthalmic administration (30 µl) of 0.3% solution) was 2 h; in [3] (setting [8]), 0.25 h; in data set [3] (setting [9]), 0.25 h; in data set [3] (iris-ciliary body, single ophthalmic administration (30 µl) of 0.3% solution), 2 h.
For the compound `O=C(O)c1cn(C2CC2)c2cc(N3CCNCC3)c(F)cc2c1=O` [Ciprofloxacin], the MIC50 worked out at 0.5 µg/mL (≈ 1.51 µM) in the data set on St. aureus [1] (Staphylococcus aureus); 0.19 µg/mL (≈ 0.573 µM) against St. epidermidis; 0.125 µg/mL (≈ 0.377 µM) with Ps. aeruginosa; 0.064 µg/mL (≈ 0.193 µM) against Serratia marcescens; 0.25 µg/mL (≈ 0.754 µM) against St. coagulase negative. The MIC90 is more than 32 µg/mL with St. aureus [1] (setting [6]); 0.5 µg/mL (≈ 1.51 µM) in the data set with St. epidermidis; 0.25 µg/mL (≈ 0.754 µM) in the data set with Ps. aeruginosa; 0.125 µg/mL (≈ 0.377 µM) in the data set with Serratia marcescens; 0.25 µg/mL (≈ 0.754 µM) in the data set with St. coagulase negative.
Take `C[C@H]1COc2c(N3CCN(C)CC3)c(F)cc3c(=O)c(C(=O)O)cn1c23` [Levofloxacin]: the MIC50 in the data set on St. aureus [1] (Staphylococcus aureus) was found to be 0.25 µg/mL (≈ 0.692 µM); against St. epidermidis, 0.19 µg/mL (≈ 0.526 µM); against Ps. aeruginosa, 0.5 µg/mL (≈ 1.38 µM); with Serratia marcescens it was 0.125 µg/mL (≈ 0.346 µM); with St. coagulase negative, 0.25 µg/mL (≈ 0.692 µM). The MIC90 worked out at 0.75 µg/mL (≈ 2.08 µM) in the data set with St. aureus [1] (setting [6]); 0.38 µg/mL (≈ 1.05 µM) against St. epidermidis; 0.75 µg/mL (≈ 2.08 µM) in the data set on Ps. aeruginosa; 0.25 µg/mL (≈ 0.692 µM) against Serratia marcescens; 0.25 µg/mL (≈ 0.692 µM) in the data set with St. coagulase negative.
Take `COc1c(N2C[C@@H]3CCCN[C@@H]3C2)c(F)cc2c(=O)c(C(=O)O)cn(C3CC3)c12` [Moxifloxacin]: the MIC50 is 0.064 µg/mL (≈ 0.159 µM) in the data set with St. aureus [1] (Staphylococcus aureus); 0.047 µg/mL (≈ 0.117 µM) against St. epidermidis; 0.5 µg/mL (≈ 1.25 µM) with Ps. aeruginosa; 0.19 µg/mL (≈ 0.473 µM) in the data set on Serratia marcescens; 0.047 µg/mL (≈ 0.117 µM) against St. coagulase negative. In addition, the MIC90 in the data set on St. aureus [1] (setting [6]) was found to be 0.38 µg/mL (≈ 0.947 µM); with St. epidermidis, 0.094 µg/mL (≈ 0.234 µM); against Ps. aeruginosa, 1 µg/mL (≈ 2.49 µM); in the data set with Serratia marcescens, 0.38 µg/mL (≈ 0.947 µM); with St. coagulase negative, 0.094 µg/mL (≈ 0.234 µM).
Regarding `CC1COc2c(N3CCN(C)CC3)c(F)cc3c(=O)c(C(=O)O)cn1c23` (stereo not shown) [Ofloxacin], the MIC90 is 1.5 µg/mL (≈ 4.15 µM) in the data set on St. aureus [1]; 1.15 µg/mL (≈ 3.18 µM) in the data set with St. aureus [1] (listed as ofloxacin); 1.5 µg/mL (≈ 4.15 µM) with St. aureus [1] (setting [6]); 16 µg/mL (≈ 44.3 µM) against St. epidermidis; 1 µg/mL (≈ 2.77 µM) against Ps. aeruginosa; 0.38 µg/mL (≈ 1.05 µM) in the data set on Serratia marcescens. In addition, the MIC90 against St. coagulase negative came out at 0.5 µg/mL (≈ 1.38 µM). Further, the MIC50 was determined as 0.5 µg/mL (≈ 1.38 µM) in the data set with St. aureus [1] (Staphylococcus aureus); 0.25 µg/mL (≈ 0.692 µM) against St. epidermidis; 0.5 µg/mL (≈ 1.38 µM) in the data set on Ps. aeruginosa; 0.19 µg/mL (≈ 0.526 µM) in the data set with Serratia marcescens; 0.25 µg/mL (≈ 0.692 µM) in the data set on St. coagulase negative. For the same compound, in data set [4], the “concentration in the aqueous humour” value is “about 1.5 µg/ml”. Also, the “concentration in the cornea relative to MIC for St. aureus” value in [4] was “near to its MIC50”.
Regarding `CCn1cc(C(=O)O)c(=O)c2cc(F)c(N3CCNCC3)cc21` [norfloxacin], in data set [2] (setting [7]), the “reduction in bacterial load in the cornea” value is “does not lead to a reduction in bacterial load”. The “concentration in the cornea relative to MIC for St. aureus” value in data set [4] is reported as “lower corneal concentrations than its MIC50-MIC90 range”. For the same compound, the MIC50 with St. aureus [5] (lower end of MIC50-MIC90 range for St. aureus) is 0.5 µg/mL (≈ 1.57 µM). For the same compound, the MIC90 in the data set on St. aureus [5] (upper end of MIC50-MIC90 range for St. aureus) was 2 µg/mL (≈ 6.26 µM).

The values are drawn from patent publication EP2143422A1, “Ophthalmic compositions containing gemifloxacin for the treatment of ocular infections” (S.I.F.I - SOCIETÀ INDUSTRIA FARMACEUTICA ITALIANA - S.P.A., priority 2008, dated 2010).
